Experimental data published in PMC10743653, “Combined In Silico and In Vitro Analyses to Assess the Anticancer Potential of Thiazolidinedione–Thiosemicarbazone Hybrid Molecules” (International Journal of Molecular Sciences, 2023).

Experiments:
[1] = Ferric-reducing antioxidant power (FRAP) assay
Source text: (§1) Antioxidant activity is a complex procedure, usually happening through several multiple or predominant chemical mechanisms (i.e., hydrogen atom transfer (HAT), single electron transfer (SET), and the ability to chelate transition metals), and it is influenced by many factors, which cannot be fully described with one single method. Therefore, it is important to perform more than one type of measurement to take into account the various mechanisms of antioxidant action. In this study, to assess the antioxidant activity of TZD–TSCs 2–5, two complementary tests were used: a DPPH (2,2-diphenyl-1-picrylhydrazyl) free radical-scavenging ability assay, that detects the HAT and SET mechanisms, and a FRAP (ferric reducing antioxidant power) assay, that prefers the […] mechanism. The antioxidant powers of 2–5 were compared to standard antioxidants, such as the water-soluble synthetic analogue of vitamin E (Trolox) and ascorbic acid (vitamin C).
Each compound concentration (25, 75, 150, and 200 μg/mL, respectively) was dissolved in Milli-Q water and mixed with an equal volume of 0.2 M sodium phosphate buffer (pH 6.6) and 1% potassium ferricyanide. The mixture was incubated for 30 min at 37 °C. Thereafter, 10% trichloroacetic acid (w/v) was added and the mixture was centrifuged at 1000 g for 5 min. One mL of the upper layer was mixed with an equal volume of Milli-Q water and 0.1% ferric chloride. The absorbance was read at 700 nm using an EL800 Universal Microplate Reader (BioTek Instruments, Winooski, VT, USA). Ascorbic acid (0–150 μg/mL) was used as a positive control.

[2] = DPPH free radical scavenging test
Source text: as §1
The free radical scavenging activity of […] was measured by the DPPH assay. Briefly, 100 μl of DPPH solution (0.2 mg/mL in ethanol) was added to 100 μL of the tested compound concentrations (25, 75, 150, and 200 μg/mL, respectively). Trolox, at increasing concentrations (1–50 μg/mL), was used as a standard. After 20 min of incubation at room temperature, the absorbances of the solutions were measured at 515 nm. The lower the absorbance, the higher the free radical scavenging activity of the compound. The activity of each compound was determined by comparing its absorbance with that of the standard.
The ability of the compounds to scavenge the DPPH radical was calculated by the following formula:DPPH scavenging effect (%) = [(Xcontrol − Xcompound/Xcontrol) × 100], where Xcontrol is the absorbance of the control and Xcompound is the absorbance in the presence of TZD-TSCs preparations.

[3] = tested on: HepG2 cells; assay: Cell migration (wound healing) assay, HepG2; type: cell-based, human; conditions: HepG2, IC50 doses (2: 10.39 μM; 3: 2.97 μM), 24 h
Experimental: (§2) The possible anti-migratory effect of 2 and 3 was examined against HepG2 and T98G cells, which most effectively responded to TZD–TSC treatment. The ability of cells to cover the scratched area was monitored after 24 h of incubation with compounds 2 and 3. […] Thus, we can conclude that the anticancer potential of the investigated compounds is enriched by their anti-metastatic effect.
Cell migration ability was evaluated according to a wound healing assay. On the day of the experiment, HepG2 and T98G cells were collected from monolayers using trypsin/EDTA and seeded on 6-well plates at a density of 1 × 10^5 cells mL^−1. After 24 h, when the confluence of cells reached about 80%, a vertical linear scratch was created in the monolayer with a sterile pipette tip. The cells were washed three times with a phosphate-buffered saline (PBS) to remove all cellular debris. […] The open wound area was measured with the NIH ImageJ software version 1.53t (Bethesda, Rockville, MD, USA). The percentage of wound closure was calculated using the following formula [81]: Wound closure (%)=open wound area at 0 h −open wound area at 24 h or 48 h/open wound area at 0 h×100%

[4] = tested on: T98G cells; assay: ECM cell invasion assay (colorimetric), T98G; type: cell-based, human
Experimental: (§3) The anti-invasion effects of 2 and 3 were examined using a Cell Invasion Assay Kit (ECM550, CHEMICON—Millipore Co., Billerica, MA, USA). In brief, 10^5 tumor cells were suspended in medium with 10% FBS and plated into the upper chamber, containing 8 μm pore size polycarbonate membrane precoated with ECMatrix, followed by filling the lower chamber with the same medium, enriched with the investigated compounds. Afterwards, cells were incubated for 24 h and allowed to invade towards the bottom chamber (with medium + 10% FBS). The non-invading cells on the upper membrane surface were removed with a cotton swab and the invasive cells, i.e., cells attached to the lower membrane surface, were stained with 0.1% crystal violet. For colorimetric quantitation, the stained cells were dissolved in 10% acetic acid (200 μL/well) and the obtained solution was transferred to a 96-well plate for spectrometric measurements, at a wavelength of 560 nm.

[5] = tested on: HepG2 cells; assay: ECM cell invasion assay (colorimetric), HepG2; type: cell-based, human
Experimental: as §3

[6] = tested on: T98G cells; assay: Cell migration (wound healing) assay, T98G; type: cell-based, human; conditions: 24 h; for Migration of cancer cells (wound healing): IC50 doses (2: 26.82 μM; 3: 28.34 μM); for Reduction in the migratory potential: ½ IC50 concentrations (2: 13.41 μM; 3: 14.17 μM)
Experimental: as §2
Cell migration ability was evaluated according to a wound healing assay. On the day of the experiment, HepG2 and T98G cells were collected from monolayers using trypsin/EDTA and seeded on 6-well plates at a density of 1 × 10^5 cells mL^−1. After 24 h, when the confluence of cells reached about 80%, a vertical linear scratch was created in the monolayer with a sterile pipette tip. The cells were washed three times with a phosphate-buffered saline (PBS) to remove all cellular debris. Subsequently, the cells were cultured in a serum-free medium, containing compounds 2 or 3 in the concentrations equal to their IC50 or ½ IC50 values, as examined for HepG2 and T98G cancer cell lines (data provided in Table 2).Images of the scratch were taken after 0 h and 24 h using an Olympus CKX53 microscope coupled with a XM10 digital camera (Olympus). The experiments were performed at least in duplicate. The scratch area at the beginning of the experiment (0 h) was considered to be 100%. The open wound area was measured with the NIH ImageJ software version 1.53t (Bethesda, Rockville, MD, USA). The percentage of wound closure was calculated using the following formula [81]: Wound closure (%)=open wound area at 0 h −open wound area at 24 h or 48 h/open wound area at 0 h×100%

Row | SMILES | FRAP reduction value corresponding to concentration of ascorbic acid ([1]; compound at 25 μg/mL) | FRAP reduction value corresponding to concentration of ascorbic acid ([1]; compound at 75 μg/mL) | FRAP reduction value corresponding to concentration of ascorbic acid ([1]; compound at 150 μg/mL) | FRAP reduction value corresponding to concentration of ascorbic acid ([1]; compound at 200 μg/mL) | DPPH reduction value corresponding to concentration of Trolox ([2]; compound at 25 μg/mL) | DPPH reduction value corresponding to concentration of Trolox ([2]; compound at 75 μg/mL) | DPPH reduction value corresponding to concentration of Trolox ([2]; compound at 150 μg/mL) | DPPH reduction value corresponding to concentration of Trolox ([2]; compound at 200 μg/mL) | Migration of cancer cells (wound healing) [3] | Invasion through artificial ECM model ([4]; 1/10 IC50 to IC50, 24 h) | Invasion through artificial ECM model ([4]; 1/10 of the IC50 doses, 24 h) | Invasion through artificial ECM model ([5]; HepG2, 1/10 IC50 to IC50, 24 h) | Invasion through artificial ECM model ([5]; HepG2, lowest concentration tested (1/10 of the IC50), 24 h) | Migration of cancer cells (wound healing) [6] | Reduction in the migratory potential [6]
1 | O=C(C=C1SC(=O)NC1=O)Oc1ccccc1C=NNC(=S)Nc1ccccc1Cl [TZD–TSC 2] | 2.43 µg/mL | 4.32 µg/mL | 3.51 µg/mL | 7.84 µg/mL | 2.942 µg/mL | 6.670 µg/mL | 11.412 µg/mL | 15.068 µg/mL | almost completely suppressed | exhibited inhibitory effects | statistically significantly inhibited | exhibited inhibitory effects | did not reduce the number of invaded cells | almost completely suppressed | > 90%
2 | O=C(C=C1SC(=O)NC1=O)Oc1ccccc1C=NNC(=S)Nc1cccc(Cl)c1 [TZD–TSC 3] | 0.81 µg/mL | 0.27 µg/mL | 1.08 µg/mL | 1.89 µg/mL | 2.616 µg/mL | 9.168 µg/mL | 17.167 µg/mL | 21.439 µg/mL | almost completely suppressed | exhibited inhibitory effects | statistically significantly inhibited | exhibited inhibitory effects |  | almost completely suppressed | > 90%
